Source: patent publication US20100311714A1, “1H-IMIDAZO[4,5-c]QUINOLINONE COMPOUNDS” (priority 2009, published 2010)
Like-named read-outs stand apart in the source and are kept apart here.

Biological target: T1, PI3K beta (Homo sapiens, UniProt P42338)
T1 construct: for the full-length p110-b subunit are generated and fused by overlapping PCR; His tag (C); made in house; host or cells: baculovirus BV949; Tn5 (Trichoplusia ni) or TiniPro insect cells
Assay: PI3K beta kinase assay (Kinase-Glo luminescence)
Format: biochemical
Method in brief: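 Kinase-Glo luminescence read out ATP left after a 60-min room-temperature reaction, started with ATP (1 μM final) on 25 nM His-tagged p85 iSH2–p110β (BV949) plus 10 μg/mL PI substrate in pH 7.5 Tris buffer. Percent inhibition at eight concentrations was fitted to a four-parameter logistic model for IC50.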

T1 sequence (P42338 with tags, fused parts or gaps limits assumed): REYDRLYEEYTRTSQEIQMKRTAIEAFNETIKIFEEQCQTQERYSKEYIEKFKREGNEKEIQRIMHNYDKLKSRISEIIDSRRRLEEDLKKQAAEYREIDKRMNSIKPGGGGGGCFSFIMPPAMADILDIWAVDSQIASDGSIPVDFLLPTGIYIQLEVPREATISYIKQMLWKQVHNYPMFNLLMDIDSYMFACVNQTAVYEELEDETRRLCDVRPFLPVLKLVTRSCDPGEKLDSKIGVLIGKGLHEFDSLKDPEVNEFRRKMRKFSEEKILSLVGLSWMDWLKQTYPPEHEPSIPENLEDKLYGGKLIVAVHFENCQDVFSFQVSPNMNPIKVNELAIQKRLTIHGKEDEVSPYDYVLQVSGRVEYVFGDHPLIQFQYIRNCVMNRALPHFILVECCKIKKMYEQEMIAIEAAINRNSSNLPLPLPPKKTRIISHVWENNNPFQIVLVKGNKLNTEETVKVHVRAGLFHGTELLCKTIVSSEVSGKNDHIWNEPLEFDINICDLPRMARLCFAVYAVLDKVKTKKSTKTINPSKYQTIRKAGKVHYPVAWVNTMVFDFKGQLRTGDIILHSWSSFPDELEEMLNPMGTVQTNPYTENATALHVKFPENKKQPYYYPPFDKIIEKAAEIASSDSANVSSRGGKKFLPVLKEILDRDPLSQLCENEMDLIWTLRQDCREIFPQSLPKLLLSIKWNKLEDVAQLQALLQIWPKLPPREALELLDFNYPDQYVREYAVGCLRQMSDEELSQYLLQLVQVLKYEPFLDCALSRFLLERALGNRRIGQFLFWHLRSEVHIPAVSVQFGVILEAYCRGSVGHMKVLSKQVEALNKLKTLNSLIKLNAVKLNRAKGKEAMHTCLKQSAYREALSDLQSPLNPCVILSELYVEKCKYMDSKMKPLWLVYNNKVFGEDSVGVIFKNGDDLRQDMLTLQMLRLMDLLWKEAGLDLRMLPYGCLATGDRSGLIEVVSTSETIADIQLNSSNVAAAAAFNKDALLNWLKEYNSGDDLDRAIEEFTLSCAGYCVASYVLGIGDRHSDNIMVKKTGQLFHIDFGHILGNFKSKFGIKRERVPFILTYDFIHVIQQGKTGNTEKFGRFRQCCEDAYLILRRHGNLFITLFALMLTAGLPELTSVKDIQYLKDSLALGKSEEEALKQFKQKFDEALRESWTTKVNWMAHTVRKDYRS

## Cc1nc(C(F)(F)F)ccc1-n1c(=O)n(C)c2cnc3ccc(-c4cncc(C(C)(C)O)c4)cc3c21 [Example 33.1, 8-[5-(1-Hydroxy-1-methyl-ethyl)-pyridin-3-yl]-3-methyl-1-(2-methyl-6-trifluoromethyl-pyridin-3-yl)-1,3-dihydro-imidazo[4,5-c]quinolin-2-one]
read-out: EPK_PI3Kbeta/IC50
  IC50: 69 nM

## Cc1ncccc1-n1c(=O)n(C)c2cnc3ccc(-c4ccc(CO)nc4)cc3c21 [Example 2.6, 8-(6-Hydroxymethyl-pyridin-3-yl)-3-methyl-1-(2-methyl-pyridin-3-yl)-1,3-dihydro-imidazo[4,5-c]quinolin-2-one]
read-out: PI3Kbeta/IC50
  IC50: 706 nM

## CNc1ccc(-c2ccc3ncc4c(c3c2)n(-c2ccc(N3CCC3)nc2C)c(=O)n4C)cn1 [Example 23.4, 1-(6-Azetidin-1-yl-2-methyl-pyridin-3-yl)-3-methyl-8-(6-methylamino-pyridin-3-yl)-1,3-dihydro-imidazo[4,5-c]quinolin-2-one]
read-out: EPK_PI3Kbeta/IC50
  IC50: 441 nM

## CCOc1ccc(-c2ccc3ncc4c(c3c2)n(-c2cccnc2F)c(=O)n4C)cn1 [Example 6.1, 8-(6-Ethoxy-pyridin-3-yl)-1-(2-fluoro-pyridin-3-yl)-3-methyl-1,3-dihydro-imidazo[4,5-c]quinolin-2-one]
read-out: PI3Kbeta/IC50
  IC50: 223 nM

## CNc1ncc(-c2ccc3ncc4c(c3c2)n(-c2ccc(N3CC[C@H](O)C3)nc2C)c(=O)n4C)cc1F [Example 32.2, 8-(5-Fluoro-6-methylamino-pyridin-3-yl)-1-[6-((S)-3-hydroxy-pyrrolidin-1-yl)-2-methyl-pyridin-3-yl]-3-methyl-1,3-dihydro-imidazo[4,5-c]quinolin-2-one]
read-out: EPK_PI3Kbeta/IC50
  IC50: 1070 nM

## COc1ncc(-c2ccc3ncc4c(c3c2)n(-c2ccc(N3CC[C@H](O)C3)nc2C)c(=O)n4C)c(OC)n1 [Example 32.3, 8-(2,4-Dimethoxy-pyrimidin-5-yl)-1-[6-((S)-3-hydroxy-pyrrolidin-1-yl)-2-methyl-pyridin-3-yl]-3-methyl-1,3-dihydro-imidazo[4,5-c]quinolin-2-one]
read-out: EPK_PI3Kbeta/IC50
  IC50: 192 nM

## Cc1ncccc1-n1c(=O)n(C)c2cnc3ccc(-c4ccc(N)nc4)cc3c21 [Example 2.7, 8-(6-Amino-pyridin-3-yl)-3-methyl-1-(2-methyl-pyridin-3-yl)-1,3-dihydro-imidazo[4,5-c]quinolin-2-one]
read-out: PI3Kbeta/IC50
  IC50: 133 nM

## CNc1cc(-c2ccc3ncc4c(c3c2)n(-c2cccnc2C)c(=O)n4C)cnc1C [Example 2.32, 3-Methyl-8-(6-methyl-5-methylamino-pyridin-3-yl)-1-(2-methyl-pyridin-3-yl)-1,3-dihydro-imidazo[4,5-c]quinolin-2-one]
read-out: EPK_PI3Kbeta/IC50
  IC50: 61 nM

## CCOc1ccc(-c2ccc3ncc4c(c3c2)n(-c2ccc(N3CCNCC3)nc2OC)c(=O)n4C)cn1 [Example 9.1, 8-(6-Ethoxy-pyridin-3-yl)-1-(2-methoxy-6-piperazin-1-yl-pyridin-3-yl)-3-methyl-1,3-dihydro-imidazo[4,5-c]quinolin-2-one]
read-out: PI3Kbeta/IC50
  IC50: 267 nM

## CCNc1ncc(-c2ccc3ncc4c(c3c2)n(-c2ccc(N3CC[C@@H](O)C3)nc2C)c(=O)n4C)cc1C(F)(F)F [Example 34.2, 8-(6-Ethylamino-5-trifluoromethyl-pyridin-3-yl)-1-[6-((R)-3-hydroxy-pyrrolidin-1-yl)-2-methyl-pyridin-3-yl]-3-methyl-1,3-dihydro-imidazo[4,5-c]quinolin-2-one]
read-out: EPK_PI3Kbeta/IC50
  IC50: 134 nM

## Cc1nc(N2CCC2)ccc1-n1c(=O)n(C)c2cnc3ccc(-c4cncc(C(C)(C)O)c4)cc3c21 [Example 23.3, 1-(6-Azetidin-1-yl-2-methyl-pyridin-3-yl)-8-[5-(1-hydroxy-1-methyl-ethyl)-pyridin-3-yl]-3-methyl-1,3-dihydro-imidazo[4,5-c]quinolin-2-one]
read-out: EPK_PI3Kbeta/IC50
  IC50: 19 nM

## COc1ncc(-c2ccc3ncc4c(c3c2)n(-c2ccc(N3CC(O)C3)nc2C)c(=O)n4C)c(OC)n1 [Example 29.6, 8-(2,4-Dimethoxy-pyrimidin-5-yl)-1-[6-(3-hydroxy-azetidin-1-yl)-2-methyl-pyridin-3-yl]-3-methyl-1,3-dihydro-imidazo[4,5-c]quinolin-2-one]
read-out: EPK_PI3Kbeta/IC50
  IC50: 59 nM

## CCOc1ccc(-c2ccc3ncc4c(c3c2)n(-c2ccc(C(C)(C)O)nc2C)c(=O)n4C)cn1 [Example 31.4, 8-(6-Ethoxy-pyridin-3-yl)-1-[6-(1-hydroxy-1-methyl-ethyl)-2-methyl-pyridin-3-yl]-3-methyl-1,3-dihydro-imidazo[4,5-c]quinolin-2-one]
read-out: EPK_PI3Kbeta/IC50
  IC50: 342 nM

## CCOc1cc(-c2ccc3ncc4c(c3c2)n(-c2ccc(OCCOC)nc2C)c(=O)n4C)cnc1COC [Example 22.1, 8-(5-Ethoxy-6-methoxymethyl-pyridin-3-yl)-1-[6-(2-methoxy-ethoxy)-2-methyl-pyridin-3-yl]-3-methyl-1,3-dihydro-imidazo[4,5-c]quinolin-2-one]
read-out: EPK_PI3Kbeta/IC50
  IC50: 429 nM

## COc1nc(N2CCNCC2)ccc1-n1c(=O)n(C)c2cnc3ccc(-c4cnc(N)c(C(F)(F)F)c4)cc3c21 [Example 9.2, 8-(6-Amino-5-trifluoromethyl-pyridin-3-yl)-1-(2-methoxy-6-piperazin-1-yl-pyridin-3-yl)-3-methyl-1,3-dihydro-imidazo[4,5-c]quinolin-2-one]
read-out: PI3Kbeta/IC50
  IC50: 36 nM

## Cc1nc(N2CCN(C)C(=O)C2)ccc1-n1c(=O)n(C)c2cnc3ccc(-c4cnc(N)c(C(F)(F)F)c4)cc3c21 [Example 21.1, 8-(6-Amino-5-trifluoromethyl-pyridin-3-yl)-3-methyl-1-[2-methyl-6-(4-methyl-3-oxo-piperazin-1-yl)-pyridin-3-yl]-1,3-dihydro-imidazo[4,5-c]quinolin-2-one]
read-out: EPK_PI3Kbeta/IC50
  IC50: 9 nM

## Cc1ncccc1-n1c(=O)n(C)c2cnc3ccc(-c4cncc(N)c4)cc3c21 [Example 2.25, 8-(5-Amino-pyridin-3-yl)-3-methyl-1-(2-methyl-pyridin-3-yl)-1,3-dihydro-imidazo[4,5-c]quinolin-2-one]
read-out: EPK_PI3Kbeta/IC50
  IC50: 143 nM

## CCOc1ncc(-c2ccc3ncc4c(c3c2)n(-c2cccnc2C)c(=O)n4C)cn1 [Example 2.5, 8-(2-Ethoxy-pyrimidin-5-yl)-3-methyl-1-(2-methyl-pyridin-3-yl)-1,3-dihydro-imidazo[4,5-c]quinolin-2-one]
read-out: PI3Kbeta/IC50
  IC50: 749 nM

## Cc1nc(N(C)CCO)ccc1-n1c(=O)n(C)c2cnc3ccc(-c4cnc(N)c(C(F)(F)F)c4)cc3c21 [Example 26.1, 8-(6-Amino-5-trifluoromethyl-pyridin-3-yl)-1-{6-[(2-hydroxy-ethyl)-methyl-amino]-2-methyl-pyridin-3-yl}-3-methyl-1,3-dihydro-imidazo[4,5-c]quinolin-2-one]
read-out: EPK_PI3Kbeta/IC50
  IC50: < 3 nM

## COC1CCN(c2ccc(-n3c(=O)n(C)c4cnc5ccc(-c6cncc(C(C)(C)O)c6)cc5c43)c(C)n2)C1 (centres unmarked) [Example 28.1, 8-[5-(1-Hydroxy-1-methyl-ethyl)-pyridin-3-yl]-1-[6-(3-methoxy-pyrrolidin-1-yl)-2-methyl-pyridin-3-yl]-3-methyl-1,3-dihydro-imidazo[4,5-c]quinolin-2-one]
read-out: EPK_PI3Kbeta/IC50
  IC50: 48 nM

## CNc1cncc(-c2ccc3ncc4c(c3c2)n(-c2cccnc2C)c(=O)n4C)c1 [Example 2.26, 3-Methyl-8-(5-methylamino-pyridin-3-yl)-1-(2-methyl-pyridin-3-yl)-1,3-dihydro-imidazo[4,5-c]quinolin-2-one]
read-out: EPK_PI3Kbeta/IC50
  IC50: 31 nM

## CNc1ccc(-c2ccc3ncc4c(c3c2)n(-c2cccnc2C)c(=O)n4C)cn1 [Example 2.13, 3-Methyl-8-(6-methylamino-pyridin-3-yl)-1-(2-methyl-pyridin-3-yl)-1,3-dihydro-imidazo[4,5-c]quinolin-2-one]
read-out: PI3Kbeta/IC50
  IC50: 226 nM

## Cc1nc(F)ccc1-n1c(=O)n(C)c2cnc3ccc(-c4cnc(N)c(C(F)(F)F)c4)cc3c21 [Example 7.1, 8-(6-Amino-5-trifluoromethyl-pyridin-3-yl)-1-(6-fluoro-2-methyl-pyridin-3-yl)-3-methyl-1,3-dihydro-imidazo[4,5-c]quinolin-2-one]
read-out: PI3Kbeta/IC50
  IC50: 7 nM

## CCOc1ccc(-c2ccc3ncc4c(c3c2)n(-c2ccc(F)nc2C)c(=O)n4C)cn1 [Example 7.3, 8-(6-Ethoxy-pyridin-3-yl)-1-(6-fluoro-2-methyl-pyridin-3-yl)-3-methyl-1,3-dihydro-imidazo[4,5-c]quinolin-2-one]
read-out: PI3Kbeta/IC50
  IC50: 452 nM

## COc1ncccc1-n1c(=O)n(C)c2cnc3ccc(-c4cnc5[nH]ccc5c4)cc3c21 [Example 1.2, 1-(2-Methoxy-pyridin-3-yl)-3-methyl-8-(1H-pyrrolo[2,3-b]pyridin-5-yl)-1,3-dihydro-imidazo[4,5-c]quinolin-2-one]
read-out: PI3Kbeta/IC50
  IC50: 115 nM

## CNc1ncc(-c2ccc3ncc4c(c3c2)n(-c2ccc(N(C)CCO)nc2C)c(=O)n4C)cn1 [Example 26.2, 1-{6-[(2-Hydroxy-ethyl)-methyl-amino]-2-methyl-pyridin-3-yl}-3-methyl-8-(2-methylamino-pyrimidin-5-yl)-1,3-dihydro-imidazo[4,5-c]quinolin-2-one]
read-out: EPK_PI3Kbeta/IC50
  IC50: 99 nM

## Cc1ncccc1-n1c(=O)n(C)c2cnc3ccc(-c4ccc(C(N)=O)cc4)cc3c21 [Example 2.3, 4-[3-Methyl-1-(2-methyl-pyridin-3-yl)-2-oxo-2,3-dihydro-1H-imidazo[4,5-c]quinolin-8-yl]-benzamide]
read-out: PI3Kbeta/IC50
  IC50: 577 nM

## CCOc1cc(-c2ccc3ncc4c(c3c2)n(-c2ccc(N3CCCC3)nc2C)c(=O)n4C)cnc1COC [Example 25.2, 8-(5-Ethoxy-6-methoxymethyl-pyridin-3-yl)-3-methyl-1-(2-methyl-6-pyrrolidin-1-yl-pyridin-3-yl)-1,3-dihydro-imidazo[4,5-c]quinolin-2-one]
read-out: EPK_PI3Kbeta/IC50
  IC50: 291 nM

## Cc1nc(F)ccc1-n1c(=O)n(C)c2cnc3ccc(-c4cnc5c(ccn5C)c4)cc3c21 [Example 7.2, 1-(6-Fluoro-2-methyl-pyridin-3-yl)-3-methyl-8-(1-methyl-1H-pyrrolo[2,3-b]pyridin-5-yl)-1,3-dihydro-imidazo[4,5-c]quinolin-2-one]
read-out: PI3Kbeta/IC50
  IC50: 309 nM
